According to patent US10160729B2, “Hsp70 modulators and methods for making and using the same” (Memorial Sloan Kettering Cancer Center, priority 2014, dated 2018):

These molecules were tested on MOLM-13 cells (assay: Caspase cleavage assay (Caspase3, 7 activation)). Settings: Homo sapiens, 16 h treatment, caspase substrate Z-DEVD-R110, read-out: c* Concentration at which 50% of the maximum signal was achieved (caspase activation).
Assay type: cell-based
Method: Caspase3, 7 Activation. MOLM-13 cells (30,000 cells/well) were plated in black 96-well plates (Corning Cat. #3603) in 40 μL of RPMI media, and left in an incubator (37° C., 5% CO2) for up to 24 h. Cells were treated for 16 h with compounds or DMSO (control) at desired concentrations in 50 μL of media. Drugs were added in triplicate wells. Following exposure of cells to Hsp70 inhibitors, 50 μL of buffer containing 10 mM HEPES (pH 7.5), 2 mM EDTA, 0.1% CHAPS and the caspase substrate Z-DEVD-R110 at 25 μM was added to each well. Plates were incubated until the signal stabilized and then the fluorescence signal of each well was measured in an Analyst GT microplate reader. The percentage increase in apoptotic cells was calculated by comparison of the fluorescence reading obtained from treated versus control cells.
Work on C=CCN1CCN(c2ncc(Sc3ccc(C(N)=O)cc3)c(OCc3cccc(OC)c3)n2)CC1 [190o, 4-((2-(4-Allylpiperazin-1-yl)-4-((3-methoxybenzyl)oxy)pyrimidin-5-yl)thio)benzamide] yielded an EC50 of less than 200 nM.
COc1cccc(COc2nc(N3CCN(C4CC4)CC3)ncc2Sc2ccc(C(N)=O)cc2)c1 [190p, 4-((2-(4-Cyclopropylpiperazin-1-yl)-4-((3-methoxybenzyl)oxy)pyrimidin-5-yl)thio) benzamide] gave an EC50 of less than 200 nM.
Molecule COc1cccc(COc2nc(N3CCN(CC4CC4)CC3)ncc2Sc2ccc(C(N)=O)cc2)c1 [190q, 4-((2-(4-(Cyclopropylmethyl)piperazin-1-yl)-4-((3-methoxybenzyl)oxy)pyrimidin-5-yl)thio)benzamide] has an EC50 of less than 200 nM.
Molecule COc1cccc(COc2nc(N3CCN(C4COC4)CC3)ncc2Sc2ccc(C(N)=O)cc2)c1 [190r, 4-((4-((3-Methoxybenzyl)oxy)-2-(4-(oxetan-3-yl)piperazin-1-yl)pyrimidin-5-yl)thio)benzamide] has an EC50 of 200 to 400 nM.
Molecule COc1cccc(COc2nc(N3CCN(C)C(=O)C3)ncc2Sc2ccc(C(N)=O)cc2)c1 [190t, 4-((4-((3-Methoxybenzyl)oxy)-2-(4-methyl-3-oxopiperazin-1-yl)pyrimidin-5-yl)thio) benzamide] has an EC50 of less than 200 nM.
For COc1cccc(COc2nc(N3CCN(Cc4ccco4)CC3)ncc2Sc2ccc(C(N)=O)cc2)c1 [190u, 4-((2-(4-(Furan-2-ylmethyl)piperazin-1-yl)-4-((3-methoxybenzyl)oxy)pyrimidin-5-yl)thio)benzamide], the EC50 was less than 200 nM.
In the case of COc1cccc(COc2nc(N3CCN(Cc4nccs4)CC3)ncc2Sc2ccc(C(N)=O)cc2)c1 [190v, 4-((4-((3-Methoxybenzyl)oxy)-2-(4-(thiazol-2-ylmethyl)piperazin-1-yl)pyrimidin-5-yl)thio)benzamide], the EC50 is reported as less than 200 nM.
Work on CN1CCN(c2ncc(Sc3ccc(N)cc3)c(OCc3ccccc3)n2)CC1 [compound 10, 4-(4-(Benzyloxy)-2-(4-methylpiperazin-1-yl)pyrimidin-5-ylthio)aniline] yielded an EC50 of 400 to 1000 nM.
With COc1ccc(Sc2cnc(N3CCN(C)CC3)nc2OCc2ccccc2)cc1N [compound 11, 5-((4-(Benzyloxy)-2-(4-methylpiperazin-1-yl)pyrimidin-5-yl)thio)-2-methoxyaniline] the EC50 was 200 to 400 nM.
Molecule CN1CCN(c2ncc(Sc3cccnc3N)c(OCc3ccccc3)n2)CC1 [compound 13, 3-((4-(Benzyloxy)-2-(4-methylpiperazin-1-yl)pyrimidin-5-yl)thio)pyridin-2-amine] has an EC50 of 400 to 1000 nM.
CN1CCN(c2ncc(Sc3ccc(C=O)o3)c(OCc3ccccc3)n2)CC1 [compound 29, 5-((4-(Benzyloxy)-2-(4-methylpiperazin-1-yl)pyrimidin-5-yl)thio)furan-2-carbaldehyde] gave an EC50 of 400 to 1000 nM.
Work on CC(=O)c1ccc(Sc2cnc(N3CCN(C)CC3)nc2OCc2ccccc2)s1 [compound 30, 1-(5-((4-(Benzyloxy)-2-(4-methylpiperazin-1-yl)pyrimidin-5-yl)thio)thiophen-2-yl)ethanone] yielded an EC50 of 400 to 1000 nM.
Work on CC(=O)c1ccc(Sc2cnc(N3CCN(C)CC3)nc2OCc2ccccc2)cc1 [compound 36, 1-(4-((4-(Benzyloxy)-2-(4-methylpiperazin-1-yl)pyrimidin-5-yl)thio)phenyl)ethanone] yielded an EC50 of 1000 to 1200 nM.
With CN1CCN(c2ncc(Sc3ccc(O)cc3)c(OCc3ccccc3)n2)CC1 [compound 37, 4-((4-(Benzyloxy)-2-(4-methylpiperazin-1-yl)pyrimidin-5-yl)thio)phenol] the EC50 was 400 to 1000 nM.
With CN1CCN(c2ncc(Sc3cccc(C=O)c3)c(OCc3ccccc3)n2)CC1 [compound 43, 3-((4-(Benzyloxy)-2-(4-methylpiperazin-1-yl)pyrimidin-5-yl)thio)benzaldehyde] the EC50 was 400 to 1000 nM.
Molecule CN1CCN(c2ncc(Sc3ccc(C#N)cc3)c(OCc3ccccc3)n2)CC1 [compound 44, 4-((4-(Benzyloxy)-2-(4-methylpiperazin-1-yl)pyrimidin-5-yl)thio)benzonitrile] has an EC50 of 400 to 1000 nM.
With CN1CCN(c2ncc(Sc3ccc(C=O)cc3)c(OCc3ccccc3)n2)CC1 [compound 45, 4-((4-(Benzyloxy)-2-(4-methylpiperazin-1-yl)pyrimidin-5-yl)thio)benzaldehyde] the EC50 was 200 to 400 nM.
With CN1CCN(c2ncc(Sc3cccc(C#N)c3)c(OCc3ccccc3)n2)CC1 [compound 47, 3-((4-(Benzyloxy)-2-(4-methylpiperazin-1-yl)pyrimidin-5-yl)thio)benzonitrile] the EC50 was 400 to 1000 nM.
COC(=O)c1ccc(Sc2cnc(N3CCN(C)CC3)nc2OCc2ccccc2)cc1 [compound 49, Methyl 4-((4-(benzyloxy)-2-(4-methylpiperazin-1-yl)pyrimidin-5-yl)thio)benzoate] gave an EC50 of 200 to 400 nM.
Work on C=CC(=O)Nc1ccc(Sc2cnc(N3CCN(C)CC3)nc2OCc2ccccc2)cn1 [compound 56, N-(5-((4-(Benzyloxy)-2-(4-methylpiperazin-1-yl)pyrimidin-5-yl)thio)pyridin-2-yl)acrylamide] yielded an EC50 of no less than 1200 nM.
Work on CN1CCN(c2ncc(Sc3ccc(NC(=O)CN)cc3)c(OCc3ccccc3)n2)CC1 [compound 58, 2-Amino-N-(4-((4-(benzyloxy)-2-(4-methylpiperazin-1-yl)pyrimidin-5-yl)thio)phenyl)acetamide] yielded an EC50 of 400 to 1000 nM.
COc1ccc(Sc2cnc(N3CCN(C)CC3)nc2OCc2ccccc2)c(N)c1 [compound 62, 2-((4-(Benzyloxy)-2-(4-methylpiperazin-1-yl)pyrimidin-5-yl)thio)-5-methoxyaniline] showed an EC50 of 400 to 1000 nM.
Molecule COc1ncc(Sc2cnc(N3CCN(C)CC3)nc2OCc2ccccc2)cc1N [compound 63, 5-((4-(Benzyloxy)-2-(4-methylpiperazin-1-yl)pyrimidin-5-yl)thio)-2-methoxypyridin-3-amine] has an EC50 of no less than 1200 nM.
CC(Oc1ccc(Sc2cnc(N3CCN(C)CC3)nc2OCc2ccccc2)cc1)C(N)=O (centres unmarked) [compound 65, 2-(4-((4-(Benzyloxy)-2-(4-methylpiperazin-1-yl)pyrimidin-5-yl)thio)phenoxy)propanamide] was tested, and the EC50 was 400 to 1000 nM.
CN1CCN(c2ncc(Sc3ccc(C(N)=O)cc3)c(OCc3ccccc3)n2)CC1 [compound 66, 4-((4-(Benzyloxy)-2-(4-methylpiperazin-1-yl)pyrimidin-5-yl)thio)benzamide] gave an EC50 of 200 to 400 nM.
Molecule CN1CCN(c2ncc(Sc3cccc(C(N)=O)c3)c(OCc3ccccc3)n2)CC1 [compound 67, 3-((4-(Benzyloxy)-2-(4-methylpiperazin-1-yl)pyrimidin-5-yl)thio)benzamide] has an EC50 of 200 to 400 nM.
CN1CCN(c2ncc(Sc3ccc(F)c(C(N)=O)c3)c(OCc3ccccc3)n2)CC1 [compound 68, 5-((4-(Benzyloxy)-2-(4-methylpiperazin-1-yl)pyrimidin-5-yl)thio)-2-fluorobenzamide] gave an EC50 of 1000 to 1200 nM.
Molecule CN1CCN(c2ncc(Sc3ccc(C(N)=O)c(C(F)(F)F)c3)c(OCc3ccccc3)n2)CC1 [compound 70, 4-((4-(Benzyloxy)-2-(4-methylpiperazin-1-yl)pyrimidin-5-yl)thio)-2-(trifluoromethyl)benzamide] has an EC50 of less than 200 nM.
For Cc1cc(C(N)=O)ccc1Sc1cnc(N2CCN(C)CC2)nc1OCc1ccccc1 [compound 73, 4-((4-(Benzyloxy)-2-(4-methylpiperazin-1-yl)pyrimidin-5-yl)thio)-3-methylbenzamide], the EC50 was 1000 to 1200 nM.
Cc1cc(Sc2cnc(N3CCN(C)CC3)nc2OCc2ccccc2)ccc1C(N)=O [compound 74, 4-((4-(Benzyloxy)-2-(4-methylpiperazin-1-yl)pyrimidin-5-yl)thio)-2-methylbenzamide] showed an EC50 of 400 to 1000 nM.
For CN1CCN(c2ncc(Sc3ccc(C(N)=O)c(Br)c3)c(OCc3ccccc3)n2)CC1 [compound 77, 4-((4-(Benzyloxy)-2-(4-methylpiperazin-1-yl)pyrimidin-5-yl)thio)-2-bromobenzamide], the EC50 was 200 to 400 nM.
Work on CN1CCN(c2ncc(Sc3ccc(C(N)=O)c(Cl)c3)c(OCc3ccccc3)n2)CC1 [compound 78, 4-((4-(Benzyloxy)-2-(4-methylpiperazin-1-yl)pyrimidin-5-yl)thio)-2-chlorobenzamide] yielded an EC50 of 400 to 1000 nM.
With CN1CCN(c2ncc(Sc3ccc(C(N)=O)c(F)c3)c(OCc3ccccc3)n2)CC1 [compound 79, 4-((4-(Benzyloxy)-2-(4-methylpiperazin-1-yl)pyrimidin-5-yl)thio)-2-fluorobenzamide] the EC50 was 200 to 400 nM.
In the case of CN1CCN(c2ncc(Sc3ccc(C(N)=O)c(I)c3)c(OCc3ccccc3)n2)CC1 [compound 80, 4-((4-(Benzyloxy)-2-(4-methylpiperazin-1-yl)pyrimidin-5-yl)thio)-2-iodobenzamide], the EC50 is reported as 400 to 1000 nM.
In the case of CN1CCN(c2ncc(Sc3ccc(C(=O)O)cc3)c(OCc3ccccc3)n2)CC1 [compound 81, 4-((4-(Benzyloxy)-2-(4-methylpiperazin-1-yl)pyrimidin-5-yl)thio)benzoic acid], the EC50 is reported as 1000 to 1200 nM.
CNC(=O)c1ccc(Sc2cnc(N3CCN(C)CC3)nc2OCc2ccccc2)cc1 [compound 83, 4-((4-(Benzyloxy)-2-(4-methylpiperazin-1-yl)pyrimidin-5-yl)thio)-N-methylbenzamide] showed an EC50 of 400 to 1000 nM.
CN1CCN(c2ncc(Sc3ccc(C(=O)N(C)C)cc3)c(OCc3ccccc3)n2)CC1 [compound 84, 4-((4-(Benzyloxy)-2-(4-methylpiperazin-1-yl)pyrimidin-5-yl)thio)-N,N-dimethylbenzamide] was tested, and the EC50 was 200 to 400 nM.
CN1CCN(c2ncc(Sc3ccc(C(=O)NCN4CCCC4)cc3)c(OCc3ccccc3)n2)CC1 [compound 92, 4-((4-(Benzyloxy)-2-(4-methylpiperazin-1-yl)pyrimidin-5-yl)thio)-N-(pyrrolidin-1-ylmethyl)benzamide] was tested, and the EC50 was 400 to 1000 nM.
